Values quoted from earlier work, collected in patent US20220347313A1, “Combination Anti-CD30 ADC, Anti-PD-1 and Chemotherapeutic for Treatment of Hematopoietic Cancers” (SEAGEN, INC., priority 2019, published 2022).

Tested on: CD28, ICOS, CTLA-4 and BTLA

nivolumab
binding specificity for PD-1 versus related CD28 family members: binds specifically to PD-1 and not to related members of the CD28 family
